What was measured:
heart failure canines = assay: Hemodynamic efficacy in heart failure canines (tachycardia-pacing model); assay type: in vivo, beagle dogs; details: for hemodynamic activity compared with CXL-1020: both normal and failing canine models, FIG. 1; for ESP / ESPVR / HR / PRSW / SW / Tau / EDV: heart failure canines, i.v. infusion; for ESP / ESPVR / HR / PRSW / SW / Tau: Dose Rate (μmol/kg/min): CXL-1020 100, (1) 75, (2) 100, (83) 65, (84) 77; for EDV: Dose Rate : CXL-1020 100, (1) 75, (2) 100, (83) 65, (84) 77
Procedure: The cardiovascular effects of nitroxyl donors were examined by means of pressure-volume (PV) curve (loops) analysis in conscious, sling-restrained beagle dogs. Animals were allowed free access to drinking water and a commercial canine diet under standard laboratory conditions. Fluorescent lighting was provided via an automatic timer for approximately 12 hours per day. On occasion, the dark cycle was interrupted intermittently due to study-related activities. Temperature and humidity were monitored and recorded daily and maintained to the maximum extent possible between 64° F. and 84° F. and 30% to 70%, respectively. The dogs were acclimated for a period of at least 1 week prior to surgery. Following surgery and recovery the animals were acclimated to sling restraint for a period up to 4.5 hours. Animals were fasted overnight prior to surgery. An indwelling venous catheter was placed in peripheral vein (e.g., cephalic) for administration of anesthetic. General anesthesia was induced intravenously (bolus) with buprenorphine (about 0.015 mg/kg) followed by an intravenous bolus of propofol (about 6 mg/kg). Additionally, a prophylactic antibiotic (cefazolin 20 to 50 mg/kg via i.v.) was given upon induction. […] Anesthesia was maintained with inhaled isoflurane (1% to 3%). Once a stable (surgical) plane of anesthesia had been established, a left-thoracotomy was performed (under strict aseptic conditions) and each animal was chronically instrumented with sono-micrometry crystals providing left-ventricular (LV) dimensions/volume. Additionally, a fluid-filled catheter and a solid-state monometer were placed in the left ventricle for pressure monitoring. A fluid-filled catheters was placed in the right ventricle (RV) and the aorta (Ao) for pressure monitoring/test article administration. […] The catheters/wires were aseptically tunneled and externalized between the scapulae. Over the course of the study, fluid-filled catheters were regularly (at least once weekly) flushed with a locking-solution in order to prevent both clotting and bacterial growth (2-3 mL of Taurolidine-Citrate solution, TCS-04; Access Technologies). Following the cardiovascular instrumentation, the right jugular vein was carefully exposed and cannulated with a bipolar pacing lead/catheter ([…]® Novus; Medtronic). Under fluoroscopic guidance, this pacing lead was advanced normograde into the right ventricle and actively affixed (screwed in) to the apical endocardium. The proximal end of the lead was secured to the pacing device (Kappa 900; Medtronic). Subsequently, the pacemaker was placed/secured in a subcutaneous pocket in the neck. Considering that the heart was exposed via a thoracotomy, a bipolar pacing wire was secured in the right ventricular mid-myocardium. This pacing lead was tunneled/externalized between the scapulae, and used in conjunction with an external impulse generator/pacemaker. The implanted endocardial pacemaker was used as a back-up to the external/epicardial pacemaker. Prior to closure of the chest from the thoracotomy, a chest tube was placed for drainage of any fluid and/or gas that accumulated from the surgical procedure. The tube was aspirated twice daily until the amount of fluid removed was less than 35 mL per aspiration in an approximately 24 hour period. The chest tube was then removed. All animals were administered a prophylactic antibiotic (cefazolin 20 to 50 mg/kg via i.v.) and pain medication (meloxicam at about 0.2 mg/kg via i.v.). If necessary, an additional analgesic was also administered which included a fentanyl patch (25 to 50 mcg/hour). All surgical incisions were closed in layers; the underlying musculature was closed with absorbable sutures and the skin was closed with staples. Following surgery, the animals were allowed to recover for at least 14 days. Cephalexin (20 to 50 mg/kg) was administered orally BID for at least 7 days and meloxicam (0.1 mg/kg) was administered SID orally or subcutaneously for at least 2 days after surgery. […]

dogs = assay: Canine implanted central catheter 72 hour continuous infusion model (clinical and microscopic pathology of vasculature); assay type: in vivo; details: for NOAEL (μg/kg/min) (molar equivalent to CXL-1020): based on microscopic pathology markers (edema, hemorrhage, vascular and perivascular inflammation); for toxicological profile relative to CXL-1020: microscopic pathology, Table 8
Procedure: To determine the cause of the inflammation and hind limb swelling, a series of 72-hour continuous infusion investigative studies were conducted over the following 6 months. […] The first site of inflammation, the catheter insertion site, caused the dog hind limb swelling and inflammation observed in the early-terminated follow-up study. Increasing infusate pH from 4 to 6 decreased inflammation, improving the inflammatory profile by approximately 3-fold (see FIG. 4).
Confirmation of this was obtained through evaluating the nitroxyl donors through detailed histopathology of the vasculature at the site of insertion of into the femoral vein (15 cm distal to the catheter tip), along the catheter track to the catheter tip, and past the tip downstream 20 cm.
A composite score was calculated from the sum of these findings scores. In FIG. 3, the cumulative histology composite score ranges from 0-2 (low severity) to 11-12 (high severity). […] The NOAEL values determined based on these microscopic pathology markers for a series of nitroxyl donors, expressed in molar equivalent dose rates (μg/kg/min) to CXL-1020, are provided in Table 8.

For `Cc1ccc(S(=O)(=O)NO)o1` [Compound 1, N-Hydroxy-5-methylfuran-2-sulfonamide], the “hemodynamic activity compared with CXL-1020” value (heart failure canines) was “comparable hemodynamic activity to CXL-1020”, the ESP (heart failure canines) was −17 ± 1 % Change from Baseline and the ESPVR (heart failure canines) was 29 ± 1 % Change from Baseline. It also gave an HR (heart failure canines) of −6 ± 2 % Change from Baseline, a PRSW (heart failure canines) of 22 ± 1 % Change from Baseline and an SW (heart failure canines) of 10 ± 5 % Change from Baseline. The Tau (heart failure canines) was −16 ± 4 % Change from Baseline, the EDV (heart failure canines) was −9 ± 2 % Change from Baseline and the “NOAEL (μg/kg/min) (molar equivalent to CXL-1020)” value (from here on “NOAEL (μg/kg/min)”) (dogs) was ≥180 µg/kg/min.

`CS(=O)(=O)c1cccc(S(=O)(=O)NO)c1` [Compound 2, N-Hydroxy-3-methanesulfonylbenzene-1-sulfonamide] was tested, and the “hemodynamic activity compared with CXL-1020” value (heart failure canines) was “comparable hemodynamic activity to CXL-1020”, the ESP (heart failure canines) was −13.83 ± 3.30 % Change from Baseline and the ESPVR (heart failure canines) was 22.84 ± 5.69 % Change from Baseline. It also gave an HR (heart failure canines) of −1.36 ± 2.06 % Change from Baseline, a PRSW (heart failure canines) of 17.91 ± 1.47 % Change from Baseline and an SW (heart failure canines) of −9.41 ± 2.84 % Change from Baseline. For the same compound, the Tau (heart failure canines) was −12.51 ± 2.72 % Change from Baseline, the EDV (heart failure canines) was −3.26 ± 1.05 % Change from Baseline and the “NOAEL (μg/kg/min)” value (dogs) was ≥180 µg/kg/min.

`O=S(=O)(NO)c1ccco1` [Compound 83, N-Hydroxyfuran-2-sulfonamide] was tested, and the “hemodynamic activity compared with CXL-1020” value (heart failure canines) was “comparable hemodynamic activity to CXL-1020”, the ESP (heart failure canines) was −18.52 ± 2.59 % Change from Baseline and the ESPVR (heart failure canines) was 38.06 ± 8.79 % Change from Baseline. The HR (heart failure canines) was 0.05 ± 1.25 % Change from Baseline, the PRSW (heart failure canines) was 14.90 ± 2.27 % Change from Baseline and the SW (heart failure canines) was −9.63 ± 1.70 % Change from Baseline. The Tau (heart failure canines) was −18.32 ± 3.06 % Change from Baseline, the EDV (heart failure canines) was −4.91 ± 0.57 % Change from Baseline and the “NOAEL (μg/kg/min)” value (dogs) was ≥90 µg/kg/min. For the same compound, the “toxicological profile relative to CXL-1020” value (dogs) was “substantially improved toxicological profile relative to CXL-1020”.

In the case of `Cc1ccc(S(=O)(=O)NO)s1` [Compound 84, N-Hydroxy-5-methylthiophene-2-sulfonamide], the “hemodynamic activity compared with CXL-1020” value (heart failure canines) is reported as “comparable hemodynamic activity to CXL-1020”, the ESP (heart failure canines) is reported as −13.72 ± 2.83 % Change from Baseline and the ESPVR (heart failure canines) is reported as 51.01 ± 5.85 % Change from Baseline. For the same compound, the HR (heart failure canines) was 3.72 ± 2.45 % Change from Baseline, the PRSW (heart failure canines) was 25.03 ± 2.52 % Change from Baseline and the SW (heart failure canines) was −5.96 ± 1.58 % Change from Baseline. The Tau (heart failure canines) was 15.61 ± 1.58 % Change from Baseline, the EDV (heart failure canines) was −13.43 ± 4.63 % Change from Baseline and the “NOAEL (μg/kg/min)” value (dogs) was ≥60 µg/kg/min. The “toxicological profile relative to CXL-1020” value (dogs) was “substantially improved toxicological profile relative to CXL-1020”.

`CS(=O)(=O)c1ccccc1S(=O)(=O)NO` [CXL-1020, N-hydroxy-2-methanesulfonylbenzene-1-sulfonamide, reference compound] gave an ESP (heart failure canines) of −14.78 ± 3.24 % Change from Baseline, an ESPVR (heart failure canines) of 45.42 ± 16.48 % Change from Baseline and an HR (heart failure canines) of −0.23 ± 2.25 % Change from Baseline. It also gave a PRSW (heart failure canines) of 21.97 ± 3.79 % Change from Baseline, an SW (heart failure canines) of −12.01 ± 4.24 % Change from Baseline and a Tau (heart failure canines) of −17.27 ± 1.39 % Change from Baseline. The EDV (heart failure canines) was −12.03 ± 3.72 % Change from Baseline, the “findings around catheter insertion site, at catheter tip and downstream” value (dogs; 72-hour infusion, dogs) was “Vascular inflammation” and the “NOAEL (μg/kg/min)” value (dogs) was <3 µg/kg/min. For the same compound, the “dose rates at which significant undesirable side effects were still demonstrated” value (dogs; infusate pH 6, dogs) was “greater than or equal to 3 μg/kg/min” and the “dose rates causing clinical pathology changes consistent with an inflammatory process” value (dogs; pH 4 formulation, 1:1 molar CXL-1020:CAPTISOL, diluted in 5% dextrose, 72-hour infusion, dogs) was “greater than or equal to 0.03 μg/kg/min”.

With `Cn1ccc(S(=O)(=O)NO)n1` [Compound 85, N-Hydroxy-1-methyl-1H-pyrazole-3-sulfonamide] the “hemodynamic activity compared with CXL-1020” value (heart failure canines) was “comparable hemodynamic activity to CXL-1020”, the “NOAEL (μg/kg/min)” value (dogs) was ≥180 µg/kg/min and the “toxicological profile relative to CXL-1020” value (dogs) was “substantially improved toxicological profile relative to CXL-1020”.
